In publication PMC9569420 (Communications Biology, 2022):
Several values for one entry are separate records, joined by “and”; a condition that tells them apart may be missing. Identical values can stand only once.

How the values were obtained:
WEE1 = target: T1, WEE1 (Homo sapiens, UniProt P30291); test: HotSpot kinase assay; type: biochemical; details: read-out: % Enzyme Activity (relative to DMSO controls)
T1 construct: purchased Reaction Biology Corporation
Protocol: (§1) Kinase activity were performed by Reaction Biology Corporation using the “HotSpot” assay platform modified from the published procedure.

PDK1/PDHK1 = target: T2, PDK1/PDHK1 (Homo sapiens, UniProt Q15118); test: HotSpot kinase assay; type: biochemical; details: 10µM; read-out: % Enzyme Activity (relative to DMSO controls)
T2 construct: purchased Reaction Biology Corporation
Protocol: as §1

CLK1 = target: T3, CLK1 (Homo sapiens, UniProt P49759); test: HotSpot kinase assay; type: biochemical; details: read-out: % Enzyme Activity (relative to DMSO controls)
T3 construct: purchased Reaction Biology Corporation

PKCg = target: T4, PKCg (Homo sapiens, UniProt P05129); test: HotSpot kinase assay; type: biochemical; details: read-out: % Enzyme Activity (relative to DMSO controls)
T4 construct: purchased Reaction Biology Corporation

STK22D/TSSK1 = target: T5, STK22D/TSSK1 (Homo sapiens, UniProt Q9BXA7); test: HotSpot kinase assay; type: biochemical; details: read-out: % Enzyme Activity (relative to DMSO controls)
T5 construct: purchased Reaction Biology Corporation

SGK3/SGKL = target: T6, SGK3/SGKL (Homo sapiens, UniProt Q96BR1); test: HotSpot kinase assay; type: biochemical; details: read-out: % Enzyme Activity (relative to DMSO controls)
T6 construct: purchased Reaction Biology Corporation

MST4 = target: T7, MST4 (Homo sapiens, UniProt Q9P289); test: HotSpot kinase assay; type: biochemical; details: read-out: % Enzyme Activity (relative to DMSO controls)
T7 construct: purchased Reaction Biology Corporation

CHK2 = target: T8, CHK2 (Homo sapiens, UniProt O96017); test: HotSpot kinase assay; type: biochemical; details: read-out: % Enzyme Activity (relative to DMSO controls)
T8 construct: purchased Reaction Biology Corporation

in vitro = details: dog, MDCK-MDR1
MARK4 = target: T9, MARK4 (Homo sapiens, UniProt Q96L34); test: HotSpot kinase assay; type: biochemical; details: read-out: % Enzyme Activity (relative to DMSO controls)
T9 construct: purchased Reaction Biology Corporation

NEK1 = target: T10, NEK1 (Homo sapiens, UniProt Q96PY6); test: HotSpot kinase assay; type: biochemical; details: read-out: % Enzyme Activity (relative to DMSO controls)
T10 construct: purchased Reaction Biology Corporation

HSV-2(G) = test: synchronized infection (entry) assay, HaCat cells; type: cell-based; details: 10 μM
Protocol: To quantify viral entry, cells were synchronously infected by allowing virus to bind to cells at 4°C for 4 h, washed, and then transferred to 37 °C. CIMSS or control DMSO was added at the time of temperature shift. At indicated times post-temperature shift, the cells were treated with a low pH buffer to inactivate virus that had not penetrated, washed, overlaid with medium containing methyl cellulose and viral plaques were counted at 48 h. Entry was also assessed by immunoblotting nuclear extracts for VP16. […] Nuclear extracts were prepared after 1 h and analyzed by western blot with antibodies targeting VP16, histone H1 and golgin-97[5]. The non-nuclear fraction was also probed for golgin-97 as a positive control. […] After 1 or 4 h of incubation, the cells were fixed. Plasma membranes were stained using Image -IT^TM LIVE Plasma Membrane kit and nuclei were stained with DAPI (Thermo Fisher Scientific, Cat 134406). The percentage of GFP + nuclei was determined by counting ~200 cells over 3–4 fields. Images were obtained with Leica SP8 microscope (objective 63 × 1.4); xz images were captured with optical slice 0.6 µm, 25–30 slices per image.

MEKK3 = target: T11, MEKK3 (Homo sapiens, UniProt Q99759); test: HotSpot kinase assay; type: biochemical; details: read-out: % Enzyme Activity (relative to DMSO controls)
T11 construct: purchased Reaction Biology Corporation

VSV-S = type: cell-based, VSV pseudotyped with SARS-CoV-2 spike
NEK4 = target: T12, NEK4 (Homo sapiens, UniProt P51957); test: HotSpot kinase assay; type: biochemical; details: read-out: % Enzyme Activity (relative to DMSO controls)
T12 construct: purchased Reaction Biology Corporation

MEKK6 = target: T13, MEKK6 (Homo sapiens, UniProt O95382); test: HotSpot kinase assay; type: biochemical; details: read-out: % Enzyme Activity (relative to DMSO controls)
T13 construct: purchased Reaction Biology Corporation

MLK1/MAP3K9 = target: T14, MLK1/MAP3K9 (Homo sapiens, UniProt P80192); test: HotSpot kinase assay; type: biochemical; details: read-out: % Enzyme Activity (relative to DMSO controls)
T14 construct: purchased Reaction Biology Corporation

JNK1 = target: T15, JNK1 (Homo sapiens, UniProt P45983); test: HotSpot kinase assay; type: biochemical; details: read-out: % Enzyme Activity (relative to DMSO controls)
T15 construct: purchased Reaction Biology Corporation

PKG2/PRKG2 = target: T16, PKG2/PRKG2 (Homo sapiens, UniProt Q13237); test: HotSpot kinase assay; type: biochemical; details: read-out: % Enzyme Activity (relative to DMSO controls)
T16 construct: purchased Reaction Biology Corporation

LYN = target: T17, LYN (Homo sapiens, UniProt P07948); test: HotSpot kinase assay; type: biochemical; details: read-out: % Enzyme Activity (relative to DMSO controls)
T17 construct: purchased Reaction Biology Corporation

MNK1 = target: T18, MNK1 (Homo sapiens, UniProt Q9BUB5); test: HotSpot kinase assay; type: biochemical; details: read-out: % Enzyme Activity (relative to DMSO controls)
T18 construct: purchased Reaction Biology Corporation

HaCat cells = test: western blot for cleaved PARP-1 or cleaved caspase 8; details: 0.1, 1, or 10 µM, 8 h
RIPK5 = target: T19, RIPK5 (Homo sapiens, UniProt Q6XUX3); test: HotSpot kinase assay; type: biochemical; details: read-out: % Enzyme Activity (relative to DMSO controls)
T19 construct: purchased Reaction Biology Corporation

PAK5 = target: T20, PAK5 (Homo sapiens, UniProt Q9P286); test: HotSpot kinase assay; type: biochemical; details: read-out: % Enzyme Activity (relative to DMSO controls)
T20 construct: purchased Reaction Biology Corporation

BRK = target: T21, BRK (Homo sapiens, UniProt Q13882); test: HotSpot kinase assay; type: biochemical; details: read-out: % Enzyme Activity (relative to DMSO controls)
T21 construct: purchased Reaction Biology Corporation

FGFR2 = target: T22, FGFR2 (Homo sapiens, UniProt P21802); test: HotSpot kinase assay; type: biochemical; details: read-out: % Enzyme Activity (relative to DMSO controls)
T22 construct: purchased Reaction Biology Corporation

PKCepsilon = target: T23, PKCepsilon (Homo sapiens, UniProt Q02156); test: HotSpot kinase assay; type: biochemical; details: read-out: % Enzyme Activity (relative to DMSO controls)
T23 construct: purchased Reaction Biology Corporation

GRK5 = target: T24, GRK5 (Homo sapiens, UniProt P34947); test: HotSpot kinase assay; type: biochemical; details: read-out: % Enzyme Activity (relative to DMSO controls)
T24 construct: purchased Reaction Biology Corporation

LIMK1 = target: T25, LIMK1 (Homo sapiens, UniProt P53667); test: HotSpot kinase assay; type: biochemical; details: read-out: % Enzyme Activity (relative to DMSO controls)
T25 construct: purchased Reaction Biology Corporation

HIPK3 = target: T26, HIPK3 (Homo sapiens, UniProt Q9H422); test: HotSpot kinase assay; type: biochemical; details: read-out: % Enzyme Activity (relative to DMSO controls)
T26 construct: purchased Reaction Biology Corporation

RSK4 = target: T27, RSK4 (Homo sapiens, UniProt Q9UK32); test: HotSpot kinase assay; type: biochemical; details: read-out: % Enzyme Activity (relative to DMSO controls)
T27 construct: purchased Reaction Biology Corporation

EPHA6 = target: T28, EPHA6 (Homo sapiens, UniProt Q9UF33); test: HotSpot kinase assay; type: biochemical; details: read-out: % Enzyme Activity (relative to DMSO controls)
T28 construct: purchased Reaction Biology Corporation

MSK2/RPS6KA4 = target: T29, MSK2/RPS6KA4 (Homo sapiens, UniProt O75676); test: HotSpot kinase assay; type: biochemical; details: read-out: % Enzyme Activity (relative to DMSO controls)
T29 construct: purchased Reaction Biology Corporation

KHS/MAP4K5 = target: T30, KHS/MAP4K5 (Homo sapiens, UniProt Q9Y4K4); test: HotSpot kinase assay; type: biochemical; details: read-out: % Enzyme Activity (relative to DMSO controls)
T30 construct: purchased Reaction Biology Corporation

TSSK3/STK22C = target: T31, TSSK3/STK22C (Homo sapiens, UniProt Q96PN8); test: HotSpot kinase assay; type: biochemical; details: read-out: % Enzyme Activity (relative to DMSO controls)
T31 construct: purchased Reaction Biology Corporation

ULK2 = target: T32, ULK2 (Homo sapiens, UniProt Q8IYT8); test: HotSpot kinase assay; type: biochemical; details: read-out: % Enzyme Activity (relative to DMSO controls)
T32 construct: purchased Reaction Biology Corporation

T28 sequence (Q9UF33 23-1036): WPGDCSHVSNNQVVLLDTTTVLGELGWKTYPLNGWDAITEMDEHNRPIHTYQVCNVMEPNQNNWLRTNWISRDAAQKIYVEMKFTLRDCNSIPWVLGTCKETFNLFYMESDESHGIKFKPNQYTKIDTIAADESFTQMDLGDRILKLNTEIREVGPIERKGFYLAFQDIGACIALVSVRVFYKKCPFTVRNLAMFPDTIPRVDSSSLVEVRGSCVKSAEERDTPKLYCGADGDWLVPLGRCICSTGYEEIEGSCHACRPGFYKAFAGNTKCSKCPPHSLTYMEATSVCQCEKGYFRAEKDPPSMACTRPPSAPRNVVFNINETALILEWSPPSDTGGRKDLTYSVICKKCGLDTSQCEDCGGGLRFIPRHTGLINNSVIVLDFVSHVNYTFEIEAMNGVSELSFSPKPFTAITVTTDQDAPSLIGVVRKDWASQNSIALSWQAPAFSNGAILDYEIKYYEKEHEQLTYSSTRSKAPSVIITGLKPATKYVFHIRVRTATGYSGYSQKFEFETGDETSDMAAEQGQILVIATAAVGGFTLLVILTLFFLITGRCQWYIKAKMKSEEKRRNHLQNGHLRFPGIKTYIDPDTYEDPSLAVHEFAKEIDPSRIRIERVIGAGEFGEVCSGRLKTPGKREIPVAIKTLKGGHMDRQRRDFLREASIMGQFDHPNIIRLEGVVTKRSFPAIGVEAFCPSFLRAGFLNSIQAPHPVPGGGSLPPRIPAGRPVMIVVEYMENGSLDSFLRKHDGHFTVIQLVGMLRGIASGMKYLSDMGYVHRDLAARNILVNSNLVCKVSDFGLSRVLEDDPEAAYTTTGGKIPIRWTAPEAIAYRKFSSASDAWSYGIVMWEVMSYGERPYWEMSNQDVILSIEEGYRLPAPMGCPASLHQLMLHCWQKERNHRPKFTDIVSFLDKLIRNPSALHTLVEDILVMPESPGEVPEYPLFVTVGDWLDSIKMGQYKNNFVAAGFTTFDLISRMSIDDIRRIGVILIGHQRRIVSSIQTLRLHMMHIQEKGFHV
T11 sequence (Q99759 whole entry): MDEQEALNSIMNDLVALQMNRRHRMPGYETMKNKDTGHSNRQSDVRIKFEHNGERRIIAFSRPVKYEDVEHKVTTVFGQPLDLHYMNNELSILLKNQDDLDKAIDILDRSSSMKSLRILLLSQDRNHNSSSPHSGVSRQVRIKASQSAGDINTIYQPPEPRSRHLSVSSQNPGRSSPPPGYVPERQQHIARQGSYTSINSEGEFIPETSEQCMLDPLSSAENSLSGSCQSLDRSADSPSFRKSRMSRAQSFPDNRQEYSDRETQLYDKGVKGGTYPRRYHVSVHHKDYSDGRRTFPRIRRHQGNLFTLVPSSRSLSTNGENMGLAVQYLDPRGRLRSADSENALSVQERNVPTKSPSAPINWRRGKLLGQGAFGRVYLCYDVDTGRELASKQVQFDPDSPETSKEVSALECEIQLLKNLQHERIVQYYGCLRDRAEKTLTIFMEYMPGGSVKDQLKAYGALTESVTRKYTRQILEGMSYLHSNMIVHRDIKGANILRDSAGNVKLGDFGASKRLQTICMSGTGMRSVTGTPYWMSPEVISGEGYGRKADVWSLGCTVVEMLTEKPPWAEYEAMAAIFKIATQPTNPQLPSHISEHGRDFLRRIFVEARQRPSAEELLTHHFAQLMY
T24 sequence (P34947 whole entry): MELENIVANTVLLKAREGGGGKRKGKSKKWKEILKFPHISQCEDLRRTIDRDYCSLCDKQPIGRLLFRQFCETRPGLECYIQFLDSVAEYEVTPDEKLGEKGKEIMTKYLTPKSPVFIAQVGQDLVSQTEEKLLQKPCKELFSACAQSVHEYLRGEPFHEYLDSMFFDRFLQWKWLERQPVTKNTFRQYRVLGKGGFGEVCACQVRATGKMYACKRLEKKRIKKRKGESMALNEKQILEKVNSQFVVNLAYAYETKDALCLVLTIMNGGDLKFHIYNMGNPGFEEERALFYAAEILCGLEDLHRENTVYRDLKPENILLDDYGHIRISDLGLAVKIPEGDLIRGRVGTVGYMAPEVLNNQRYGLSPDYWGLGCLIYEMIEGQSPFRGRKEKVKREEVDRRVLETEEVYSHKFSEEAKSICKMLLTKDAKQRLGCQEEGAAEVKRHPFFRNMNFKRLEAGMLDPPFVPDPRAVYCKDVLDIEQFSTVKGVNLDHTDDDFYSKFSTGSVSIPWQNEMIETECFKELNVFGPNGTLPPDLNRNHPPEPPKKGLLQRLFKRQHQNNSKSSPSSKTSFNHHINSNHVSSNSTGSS
T3 sequence (P49759 whole entry): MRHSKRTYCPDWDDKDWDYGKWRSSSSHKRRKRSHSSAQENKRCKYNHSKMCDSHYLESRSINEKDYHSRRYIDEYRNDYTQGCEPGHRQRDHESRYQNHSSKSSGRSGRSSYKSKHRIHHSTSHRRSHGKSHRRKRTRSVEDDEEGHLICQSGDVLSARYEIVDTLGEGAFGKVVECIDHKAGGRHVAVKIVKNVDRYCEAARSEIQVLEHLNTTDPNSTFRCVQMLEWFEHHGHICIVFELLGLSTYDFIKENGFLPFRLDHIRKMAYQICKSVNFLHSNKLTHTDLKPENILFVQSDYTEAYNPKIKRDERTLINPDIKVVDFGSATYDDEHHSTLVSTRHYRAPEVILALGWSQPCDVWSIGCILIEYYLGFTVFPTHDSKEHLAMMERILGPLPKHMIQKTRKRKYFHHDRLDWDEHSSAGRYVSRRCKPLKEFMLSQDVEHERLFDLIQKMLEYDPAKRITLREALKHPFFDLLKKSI
T1 sequence (P30291 whole entry): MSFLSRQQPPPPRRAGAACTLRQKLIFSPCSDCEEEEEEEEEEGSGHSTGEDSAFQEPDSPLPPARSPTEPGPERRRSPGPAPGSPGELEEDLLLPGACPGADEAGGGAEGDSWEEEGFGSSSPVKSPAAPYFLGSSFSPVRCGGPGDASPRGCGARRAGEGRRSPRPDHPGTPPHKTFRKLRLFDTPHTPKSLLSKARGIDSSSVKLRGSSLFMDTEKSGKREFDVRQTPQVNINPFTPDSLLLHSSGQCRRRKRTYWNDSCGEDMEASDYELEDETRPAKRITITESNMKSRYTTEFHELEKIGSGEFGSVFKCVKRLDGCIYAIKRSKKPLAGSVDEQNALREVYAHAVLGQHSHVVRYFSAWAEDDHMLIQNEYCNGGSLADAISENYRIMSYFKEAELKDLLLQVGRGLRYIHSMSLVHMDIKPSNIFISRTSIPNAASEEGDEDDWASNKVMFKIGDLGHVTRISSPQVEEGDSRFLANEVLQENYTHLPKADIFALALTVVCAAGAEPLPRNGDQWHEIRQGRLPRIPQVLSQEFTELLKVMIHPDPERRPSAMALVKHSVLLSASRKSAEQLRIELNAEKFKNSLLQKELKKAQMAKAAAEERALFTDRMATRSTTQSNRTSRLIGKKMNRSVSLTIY
T9 sequence (Q96L34 whole entry): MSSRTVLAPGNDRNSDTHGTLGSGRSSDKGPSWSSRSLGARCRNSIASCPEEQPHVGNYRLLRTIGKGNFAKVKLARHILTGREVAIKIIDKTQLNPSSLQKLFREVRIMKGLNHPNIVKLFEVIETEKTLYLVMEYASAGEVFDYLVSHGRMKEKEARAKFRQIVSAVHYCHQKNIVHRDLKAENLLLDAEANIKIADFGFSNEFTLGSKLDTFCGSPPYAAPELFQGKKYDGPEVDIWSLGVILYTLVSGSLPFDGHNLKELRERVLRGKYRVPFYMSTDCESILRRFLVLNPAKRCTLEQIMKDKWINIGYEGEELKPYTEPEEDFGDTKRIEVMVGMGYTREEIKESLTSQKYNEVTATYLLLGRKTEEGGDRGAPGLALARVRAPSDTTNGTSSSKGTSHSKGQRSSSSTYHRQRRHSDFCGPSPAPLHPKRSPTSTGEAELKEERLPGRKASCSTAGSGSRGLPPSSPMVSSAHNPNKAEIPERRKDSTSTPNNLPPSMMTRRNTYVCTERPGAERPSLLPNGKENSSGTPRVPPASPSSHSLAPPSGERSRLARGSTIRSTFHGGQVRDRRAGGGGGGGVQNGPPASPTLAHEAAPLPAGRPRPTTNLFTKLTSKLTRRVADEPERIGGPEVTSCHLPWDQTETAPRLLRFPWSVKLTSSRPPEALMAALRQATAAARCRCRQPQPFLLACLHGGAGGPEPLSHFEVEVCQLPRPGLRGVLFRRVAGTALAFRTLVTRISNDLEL
T17 sequence (P07948 whole entry): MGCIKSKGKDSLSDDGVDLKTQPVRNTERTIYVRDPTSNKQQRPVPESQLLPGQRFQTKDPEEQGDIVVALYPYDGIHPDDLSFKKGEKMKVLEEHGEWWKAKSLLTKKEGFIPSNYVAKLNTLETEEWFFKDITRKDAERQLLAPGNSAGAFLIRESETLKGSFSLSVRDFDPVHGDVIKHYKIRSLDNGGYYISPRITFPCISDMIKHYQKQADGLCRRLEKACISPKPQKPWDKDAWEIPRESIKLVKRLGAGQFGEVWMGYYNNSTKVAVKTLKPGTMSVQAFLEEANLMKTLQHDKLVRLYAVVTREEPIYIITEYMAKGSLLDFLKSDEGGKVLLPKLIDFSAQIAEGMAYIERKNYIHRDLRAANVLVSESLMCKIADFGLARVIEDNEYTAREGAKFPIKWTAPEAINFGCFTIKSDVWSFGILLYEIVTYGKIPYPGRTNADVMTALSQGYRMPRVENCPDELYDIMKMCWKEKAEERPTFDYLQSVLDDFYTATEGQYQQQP
T31 sequence (Q96PN8 whole entry): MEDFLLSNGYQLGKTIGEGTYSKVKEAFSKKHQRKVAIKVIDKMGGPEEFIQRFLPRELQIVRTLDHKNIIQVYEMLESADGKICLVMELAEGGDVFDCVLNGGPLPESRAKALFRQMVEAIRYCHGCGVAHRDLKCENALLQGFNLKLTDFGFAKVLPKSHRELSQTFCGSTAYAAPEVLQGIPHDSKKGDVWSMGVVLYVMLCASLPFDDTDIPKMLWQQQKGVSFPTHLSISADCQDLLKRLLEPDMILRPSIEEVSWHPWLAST

SMILES: CO[C@@H]1[C@H](N(C)C(=O)CCC(=O)NCc2cn(CCCS(=O)(=O)O)nn2)C[C@H]2O[C@]1(C)n1c3ccccc3c3c4c(c5c6ccccc6n2c5c31)C(=O)NC4 [CIMSS]
- remaining activity at 10 µM (WEE1): 44.2%
- remaining activity at 10 µM (PDK1/PDHK1): 97.2%
- remaining activity at 10 µM (CLK1): 4.05%
- remaining activity at 10 µM (PKCg): 1.77%
- remaining activity at 10 µM (STK22D/TSSK1): 2.71%
- remaining activity at 10 µM (SGK3/SGKL): 59.6%
- remaining activity at 10 µM (MST4): 1.35%
- remaining activity at 10 µM (CHK2): 25.4%
- Papp at 1 h, 5 μM (in vitro): 0.1 ×10⁻⁶ cm/s
- remaining activity at 10 µM (MARK4): 0.77%
- remaining activity at 10 µM (NEK1): 5.88%
- plaques counted at 48 h (HSV-2(G); 1 h post-temperature shift): 11 and 17
- plaques counted at 48 h (HSV-2(G); 2 h post-temperature shift): 19 and 11
- viral plaque formation (HSV-2(G); each timepoint 0.5–2 h, p < 0.001): significant reduction
- remaining activity at 10 µM (MEKK3): 6.32%
- VSV-S infection (VSV-S): inhibited
- remaining activity at 10 µM (NEK4): 6.24%
- remaining activity at 10 µM (MEKK6): 110%
- remaining activity at 10 µM (MLK1/MAP3K9): 4.06%
- remaining activity at 10 µM (JNK1): 24.8%
- remaining activity at 10 µM (PKG2/PRKG2): 1.99%
- remaining activity at 10 µM (LYN): 2.5%
- remaining activity at 10 µM (MNK1): 42.6%
- PARP-1 or caspase 8 cleavage (HaCat cells): did not induce
- remaining activity at 10 µM (RIPK5): 22.7%
- remaining activity at 10 µM (PAK5): 7.72%
- remaining activity at 10 µM (BRK): 25.5%
- remaining activity at 10 µM (FGFR2): 2.58%
- remaining activity at 10 µM (PKCepsilon): 1.11%
- remaining activity at 10 µM (GRK5): 7.35%
- remaining activity at 10 µM (LIMK1): 0.88%
- remaining activity at 10 µM (HIPK3): 14.5%
- remaining activity at 10 µM (RSK4): 6.64%
- remaining activity at 10 µM (EPHA6): 34.6%
- remaining activity at 10 µM (MSK2/RPS6KA4): 2.11%
- remaining activity at 10 µM (KHS/MAP4K5): 5.19%
- remaining activity at 10 µM (TSSK3/STK22C): 62.2%
- remaining activity at 10 µM (ULK2): 13.6%
